Laboratory results: patent publication US20260209263A1, “UNNATURAL SUGAR, AND SYNTHESIS METHOD THEREFOR AND USE THEREOF” (HEFEI LINXCELL BIOTECHNOLOGIES CO., LTD, priority 2022, published 2026)

Columns and labels:
HeLa cells = experiment: Metabolic glycan labeling in living HeLa cells, Cy5 in-gel fluorescence; assay type: cell-based; conditions: for labeling efficiency compared with 1,6-Pr2GalNAz or 1,6-Pr2ManNAz: 200 μM; for labeling efficiency compared with GalNAz or ManNAz: 200 μM of 1,6-bis-acylated sugar vs 2 mM of sugar without protecting groups
Method: In order to verify the metabolic labeling effect of the above-mentioned 1,6-bis-acylated unnatural sugars in living cells, HeLa cells were metabolically labeled with the above-mentioned different compounds. The specific steps are as follows:
200 μM of 1,6-bis-acylated unnatural sugar and 2 mM of sugar without protecting groups were added to a culture medium of HeLa cells for culture, and then bioorthogonal reaction was carried out with Cy5 fluorescently labeled substances, and in-gel fluorescence detection was performed on the differently treated HeLa cells. The detection results are shown in FIGS. 2A-2C (CBB in FIGS. 3A-3D represents Coomassie Brilliant Blue staining to show the loading amount control).

B6D2F1/J mice = experiment: Metabolic labeling in vivo in mice, in-gel fluorescence of organ homogenates; conditions: intraperitoneal, 500 mg/kg every day for 3 or 7 consecutive days; heart, lung, spleen
Method: In the in vivo mouse experiment, B6D2F1/J mice were intraperitoneally injected with 1,6-Pr2GalNAz or 1,6-Pr2ManNAz (both at a concentration of 500 mg/kg) every day for 3 or 7 consecutive days. The mice were euthanized on the 4th or 8th day, and different organs were selected for homogenization. The azide-modified glycoproteins were click-labeled and separated by SDS-PAGE.

[1] = tested on: MCF-7 (MCF7-T2A-GFP) cells; experiment: Metabolic glycan labeling in MCF-7 cells expressing GFP; assay type: cell-based
Excerpt: (§1) The above data well illustrate that 1,6-bis-acylated azidosugars can be metabolically labeled at much lower concentrations than unprotected azidosugars.

[2] = tested on: MCF7-AGX2F383G-T2A-GFP cells; experiment: Metabolic glycan labeling in MCF-7 cells overexpressing mutant enzyme AGX2F383G; assay type: cell-based
Excerpt: as §1

Row | SMILES | labeling efficiency compared with 1,6-Pr2GalNAz or 1,6-Pr2ManNAz (HeLa cells) | labeling efficiency compared with GalNAz or ManNAz (HeLa cells) | in vivo metabolic labeling of glycoproteins from organs (B6D2F1/J mice) | also measured
1 | CC(=O)OCC1OC(OC(C)=O)C(NC(=O)CN=[N+]=[N-])C(O)C1O (centres unmarked) [1,6-Ac2GalNAz] | much lower | – | – | –
2 | CCCC(=O)OCC1OC(OC(=O)CCC)C(NC(=O)CN=[N+]=[N-])C(O)C1O (centres unmarked) [1,6-Bu2GalNAz] | comparable | – | – | –
3 | CCC(=O)OC[C@H]1OC(OC(=O)CC)[C@H](NC(=O)CN=[N+]=[N-])[C@@H](O)[C@H]1O (some centres unmarked) [1,6-Pr2GalNAz] | – | close to or slightly stronger than 2 mM of sugar without protecting groups | glycoproteins from the heart, lung, and spleen could be well labeled | –
4 | CCC(=O)OCC1OC(OC(=O)CC)C(NC(=O)CN=[N+]=[N-])C(O)C1O (centres unmarked) [1,6-Pr2ManNAz] | – | close to or slightly stronger than 2 mM of sugar without protecting groups | glycoproteins from the heart, lung, and spleen could be well labeled | –
5 | [N-]=[N+]=NCC(=O)N[C@H]1C(O)O[C@H](CO)[C@@H](O)[C@@H]1O (some centres unmarked) [GlcNAz] | – | – | – | metabolic labeling [1]: neither GlcNAz nor 1,6-bis-acylated GlcNAz treatment resulted in obvious labeling; metabolic labeling [2]: produced obvious labeling
